Assay results reported in patent US20260070902A1, “SULFONYL DERIVATIVES AS CCR6 INHIBITORS” (Hoffmann-La Roche Inc., priority 2022, published 2026).

These compounds were tested against T1, human CCR6 (Homo sapiens, UniProt P51684) (assay: Human CCR6-CRE reporter assay). Details: relative -Log IC50; 293FT cells transfected with human CCR6 and CRE-luciferase reporter; 6 μM Forskolin, 6 nM CCL20; 5 h.
T1 sequence (P51684 1-374): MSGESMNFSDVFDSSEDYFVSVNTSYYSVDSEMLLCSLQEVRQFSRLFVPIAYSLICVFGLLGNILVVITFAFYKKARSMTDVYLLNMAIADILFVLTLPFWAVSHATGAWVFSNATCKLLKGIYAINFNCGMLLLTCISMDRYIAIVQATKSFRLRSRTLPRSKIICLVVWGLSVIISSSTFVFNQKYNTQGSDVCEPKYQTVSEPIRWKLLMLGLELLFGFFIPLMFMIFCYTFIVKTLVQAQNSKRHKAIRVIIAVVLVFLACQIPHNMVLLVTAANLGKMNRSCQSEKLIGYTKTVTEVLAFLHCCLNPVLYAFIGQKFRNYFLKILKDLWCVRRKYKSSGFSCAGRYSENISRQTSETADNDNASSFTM
Assay type: cell-based
Parameters: The second construct contained the open reading frame of human CCR6 in the pUNO1 backbone; host or cells: 293FT cells
Description: Human CCR6-CRE Reporter Assay
293FT cells were transfected with 2 constructs using TransIT-293 (Mirus). The first construct (pGL4.29, Promega) expressed the luciferase reporter gene luc2P in response to the binding of cAMP-induced CREB to the CREelement in its promoter. The second construct contained the open reading frame of human CCR6 in the pUNO1 backbone under the control of an enhanced CMV promoter (InVivoGen). 48 h after transfection, cells were harvested and diluted to 750,000 cells/ml in culture medium (DMEM, 10% FBS, 1× pen/strep (Gibco 15140)). Compounds were 2.5-fold serially diluted in DMSO. Further dilutions were made in assay medium (DMEM, 10% FBS, 1× pen/strep, 6 μM Forskolin, 6 nM CCL20). 4 μl of the compound solution was added to a white MW384 plate, followed by 20 μl of the cell suspension. Final DMSO concentration in the assay was 0.1%. The MW384 plate was placed in an incubator at 37° C., 5% CO2 for 5 h. Luciferase activity was determined by addition of 24 μl of a 2.5× diluted BriteLite luciferase solution (Perkin Elmer), followed by luminescence measurement using a VICTOR Plate reader (Perkin Elmer). […] The relative −Log IC50 was determined with GraphPad Prism 9 using a four-parameter dose-response model.

IC50	Compound
1580 nM	CN(C)C(=O)c1ccc(-c2ccc(S(=O)(=O)[C@H]3CC[C@@H](Nc4ccc(S(F)(F)(F)(F)F)cc4)CC3)cc2)nc1 [Example 45, N,N-dimethyl-6-(4-{[cis-4-{[4-(pentafluoro-λ^6-sulfanyl)phenyl]Amino}cyclohexyl]sulfonyl}phenyl)pyridine-3-carboxamide]
398 nM	N=S(=O)(c1ccc(-c2ccc3c(c2)CNC3=O)cc1)[C@H]1CC[C@H](Nc2ccc(S(F)(F)(F)(F)F)cc2)CC1 (stereo partly drawn) [Example 112, 5-(4-{[trans-4-{[4-(pentafluoro-λ^6-sulfanyl)phenyl]Amino}cyclohexyl]sulfonimidoyl}phenyl)-2,3-dihydro-1H-isoindol-1-one]
100 nM	CN(C)c1cnc2ccc(-c3ccc(S(=O)(=O)[C@H]4CC[C@H](Nc5ccc(S(F)(F)(F)(F)F)cc5)CC4)cc3)cn12 [Example 143, N,N-dimethyl-6-(4-{[trans-4-{[4-(pentafluoro-λ^6-sulfanyl)phenyl]amino}cyclohexyl]sulfonyl}phenyl)imidazo[1,2-a]pyridin-3-amine]
79.4 nM	CC(C)NC(=O)c1cccc(-c2ccc(S(=O)(=O)[C@H]3CC[C@H](Nc4ccc(S(F)(F)(F)(F)F)cc4)CC3)cc2)c1 [Example 141, N-(propan-2-yl)-4′-{[trans-4-{[4-(pentafluoro-λ^6-sulfanyl)phenyl]amino}cyclohexyl]sulfonyl}-[1,1′-biphenyl]-3-carboxamide]
50.1 nM	O=C1Cc2cc(-c3ccc(S(=O)(=O)[C@H]4CC[C@H](Nc5ccc(S(F)(F)(F)(F)F)cc5)CC4)cc3)ccc2CN1 [Example 54, 6-(4-{[trans-4-{[4-(pentafluoro-λ^6-sulfanyl)phenyl]Amino}cyclohexyl]sulfonyl}phenyl)-1,2,3,4-tetrahydroisoquinolin-3-one]
251 nM	CN(C)C(=O)c1ccc(-c2ccc(S(=O)(=O)[C@H]3CC[C@H](Nc4ccc(S(F)(F)(F)(F)F)cc4)CC3)cc2)nc1 [Example 46, N,N-dimethyl-6-(4-{[trans-4-{[4-(pentafluoro-λ^6-sulfanyl)phenyl]Amino}cyclohexyl]sulfonyl}phenyl)pyridine-3-carboxamide]
31.6 nM	O=c1[nH]cnn2cc(-c3ccc(S(=O)(=O)[C@H]4CC[C@H](Nc5ccc(S(F)(F)(F)(F)F)cc5)CC4)cc3)cc12 [Example 55, 6-(4-{[trans-4-{[4-(pentafluoro-λ^6-sulfanyl)phenyl]Amino}cyclohexyl]sulfonyl}phenyl)-3H,4H-pyrrolo[2,1-f][1,2,4]triazin-4-one]
794 nM	N#Cc1cnc2ccc(-c3ccc(S(=O)(=O)[C@H]4CC[C@@H](Nc5ccc(S(F)(F)(F)(F)F)cc5)CC4)cc3)cn12 [Example 17, 6-(4-{[cis-4-{[4-(pentafluoro-λ^6-sulfanyl)phenyl]Amino}cyclohexyl]sulfonyl}phenyl)imidazo[1,2-a]pyridine-3-carbonitrile]
1580 nM	O=S(=O)(c1ccc(-c2ncc3[nH]ccc3n2)cc1)[C@H]1CC[C@H](Nc2ccc(S(F)(F)(F)(F)F)cc2)CC1 [Example 145, 4-(pentafluoro-λ^6-sulfanyl)-N-[trans-4-(4-{5H-pyrrolo[3,2-d]pyrimidin-2-yl}benzenesulfonyl)cyclohexyl]aniline]
200 nM	CP(C)(=O)c1ccc(-c2ccc(S(=O)(=O)[C@H]3CC[C@H](Nc4ccc(S(F)(F)(F)(F)F)cc4)CC3)cc2)cc1 [Example 57, 4-(pentafluoro-λ^6-sulfanyl)-N-[trans-4-{[4′-(dimethylphosphoryl)-[1,1′-biphenyl]-4-yl]sulfonyl}cyclohexyl]aniline]
200 nM	N=S(=O)(c1ccc(-c2ccc3c(c2)CC(=O)N3)cc1)[C@H]1CC[C@H](Nc2ccc(S(F)(F)(F)(F)F)cc2)CC1 (stereo partly drawn) [Example 116, 5-(4-{[trans-4-{[4-(pentafluoro-λ^6-sulfanyl)phenyl]Amino}cyclohexyl]sulfonimidoyl}phenyl)-2,3-dihydro-1H-indol-2-one]
1260 nM	N#Cc1c[nH]c2ccc(-c3ccc(S(=O)(=O)[C@H]4CC[C@@H](Nc5ccc(S(F)(F)(F)(F)F)cc5)CC4)cc3)cc12 [Example 8, 5-(4-{[cis-4-{[4-(pentafluoro-λ^6-sulfanyl)phenyl]Amino}cyclohexyl]sulfonyl}phenyl)-1H-indole-3-carbonitrile]
398 nM	NC(=O)c1ccc(-c2ccc(S(=O)(=O)[C@H]3CC[C@H](Nc4ccc(S(F)(F)(F)(F)F)cc4)CC3)cc2)nn1 [Example 62, 6-(4-{[trans-4-{[4-(pentafluoro-λ^6-sulfanyl)phenyl]Amino}cyclohexyl]sulfonyl}phenyl)pyridazine-3-carboxamide]
63.1 nM	Cc1cc(-c2ccc(S(=O)(=O)[C@H]3CC[C@H](Nc4ccc(S(F)(F)(F)(F)F)cc4)CC3)cc2)cn2ccnc12 [Example 149, 4-(pentafluoro-λ^6-sulfanyl)-N-[trans-4-(4-{8-methylimidazo[1,2-a]pyridin-6-yl}benzenesulfonyl)cyclohexyl]aniline]

Continued, compound first:

Compound	IC50
Cc1nnc2cc(-c3ccc(S(=N)(=O)[C@H]4CC[C@H](Nc5ccc(S(F)(F)(F)(F)F)cc5)CC4)cc3)ccn12 (stereo partly drawn) [Example 104, (4-{3-methyl-[1,2,4]triazolo[4,3-a]pyridin-7-yl}phenyl)[trans-4-{[4-(pentafluoro-λ^6-sulfanyl)phenyl]Amino}cyclohexyl](imino)-λ^6-sulfanone]	398 nM
N=S(=O)(c1ccc(-c2ccc3c(c2)CCNC3=O)cc1)[C@H]1CC[C@H](Nc2ccc(S(F)(F)(F)(F)F)cc2)CC1 (stereo partly drawn) [Example 113, 6-(4-{[trans-4-{[4-(pentafluoro-λ^6-sulfanyl)phenyl]Amino}cyclohexyl]sulfonimidoyl}phenyl)-1,2,3,4-tetrahydroisoquinolin-1-one]	316 nM
N=S(=O)(c1ccc(-c2ccc(C(N)=O)cn2)cc1)[C@H]1CC[C@H](Nc2ccc(S(F)(F)(F)(F)F)cc2)CC1 (stereo partly drawn) [Example 111, 6-(4-{[trans-4-{[4-(pentafluoro-λ^6-sulfanyl)phenyl]Amino}cyclohexyl]sulfonimidoyl}phenyl)pyridine-3-carboxamide]	1000 nM
O=S(=O)(c1ccc(-c2ccc3nccn3c2)c(F)c1)N1CCC(Nc2ccc(S(F)(F)(F)(F)F)cc2)CC1 [Example 72, 1-(3-fluoro-4-{imidazo[1,2-a]pyridin-6-yl}benzenesulfonyl)-N-[4-(pentafluoro-λ^6-sulfanyl)phenyl]piperidin-4-amine]	1580 nM
O=S(=O)(c1ccc(-c2ccc3nccn3c2)cn1)N1CCC(Nc2ccc(S(F)(F)(F)(F)F)cc2)CC1 [Example 75, 1-[(5-{imidazo[1,2-a]pyridin-6-yl}pyridin-2-yl)sulfonyl]-N-[4-(pentafluoro-λ^6-sulfanyl)phenyl]piperidin-4-amine]	1000 nM
N#Cc1c[nH]c2ccc(-c3ccc(S(=N)(=O)N4CCC(Nc5ccc(S(F)(F)(F)(F)F)cc5)CC4)cc3)cc12 (stereo not drawn) [Example 120, 5-{4-[(4-{[4-(pentafluoro-λ^6-sulfanyl)phenyl]Amino}piperidin-1-yl)sulfonimidoyl]phenyl}-1H-indole-3-carbonitrile]	63.1 nM
O=S(=O)(c1ccc(-c2ccc3nnc(C4CCCC4)n3c2)cc1)N1CCC(Nc2ccc(S(F)(F)(F)(F)F)cc2)CC1 [Example 31, 1-(4-{3-cyclopentyl-[1,2,4]triazolo[4,3-a]pyridin-6-yl}benzenesulfonyl)-N-[4-(pentafluoro-λ^6-sulfanyl)phenyl]piperidin-4-amine]	63.1 nM
CN(C)C(=O)c1cc(-c2ccc(S(=N)(=O)[C@H]3CC[C@H](Nc4ccc(S(F)(F)(F)(F)F)cc4)CC3)cc2)ccn1 (stereo partly drawn) [Example 109, N,N-dimethyl-4-(4-{[trans-4-{[4-(pentafluoro-λ^6-sulfanyl)phenyl]Amino}cyclohexyl]sulfonimidoyl}phenyl)pyridine-2-carboxamide]	2000 nM
N#Cc1ccc(-c2ccc(S(=N)(=O)N3CCC(Nc4ccc(S(F)(F)(F)(F)F)cc4)CC3)cc2)cc1 (stereo not drawn) [Example 122, 4′-[(4-{[4-(pentafluoro-λ^6-sulfanyl)phenyl]Amino}piperidin-1-yl)sulfonimidoyl]-[1,1′-biphenyl]-4-carbonitrile]	398 nM
CN(C)C(=O)c1cccc(-c2ccc(S(=N)(=O)[C@H]3CC[C@H](Nc4ccc(S(F)(F)(F)(F)F)cc4)CC3)cc2)c1 (stereo partly drawn) [Example 97, N,N-dimethyl-4′-{[trans-4-{[4-(pentafluoro-λ^6-sulfanyl)phenyl]Amino}cyclohexyl]sulfonimidoyl}-[1,1′-biphenyl]-3-carboxamide]	1000 nM
